Key:
[1] = Inhibition of Trypanosoma brucei FPPS
[2] = Inhibition of Leishmania donovani FPPS
[3] = tested on: Trypanosoma brucei rhodesiense; assay: Growth inhibition of Trypanosoma brucei rhodesiense

IC50 [2] | EC50 [3] | Structure (SMILES) | IC50 [1]
 |  | O=P(O)(O)C(O)(Cc1cccnc1)P(=O)(O)O [RISEDRONIC ACID] | 0.3 µM
5.4 µM | 1.7 µM | O=P(O)(O)C(O)(CCc1cccnc1)P(=O)(O)O | 33 µM
 |  | Cc1cccnc1NC(P(=O)(O)O)P(=O)(O)O | 0.23 µM
